What was measured:
[1] = test system: CCO18CD colon fibroblasts stimulated with TGF-β; assay: High throughput microscopy-based anti-fibrotic drug screen (α-SMA and collagen 1 expression); type: cell-based
Text: FIG. 1 is images of cells from high throughput microscopy-based analysis of an FDA-approved drug library for potential anti-fibrotic properties.
FIGS. 3A-3C are images of cells from high throughput microscopy-based analysis of potential drugs for anti-fibrotic properties.

[2] = test system: intestinal fibroblast cells; assay: Cell survival in the microscopy-based screen; conditions: at effective concentrations
[3] = test system: key fibrosis genes (ACTA2, COL1A1, COL3A1, TGFBR1) in transplanted intestinal tissue; assay: Subcutaneous intestinal transplant fibrosis model, qPCR of fibrosis genes; type: in vivo; conditions: mouse; one subcutaneous injection 15 mg/kg; one week after implantation; versus oral pirfenidone 100 mg/kg three times daily
Text: A 1-2 cm segment of bowel was excised from one mouse and implanted in the subcutaneous space on the neck of another mouse of the same genetic background. […] One week after tissue implantation and initiation of treatment, the segment of transplanted intestine tissue was excised to assess expression of key genes involved in fibrosis (α-SMA, ACTA2; collagen type 1, COL1A1; collagen type 3, COL3A1; TGF-β receptor 1, TGFBR1) by qPCR.

[4] = mouse, in vivo, sc, 50 mg/kg

Structure (SMILES) | concentration causing reduction in α-SMA and collagen production ([1]; TGF-β stimulated colon fibroblasts) [mM] | concentration level at which induced expression of α-SMA and/or collagen was reduced (in words) ([1]; TGF-β stimulated intestinal fibroblasts) | impact on cell survival [2] | repression of fibrosis genes (ACTA2, COL1A1, COL3A1, TGFBR1) [3] | mortality [4]
Cc1ccc(=O)n(-c2ccccc2)c1 [pirfenidone] | 4 | millimolar concentrations | – | – | –
Clc1ccc(CSC(Cn2ccnc2)c2ccc(Cl)cc2Cl)cc1 (centres unmarked) [sulconazole, 1-[2-[(4-chlorophenyl)methylsulfanyl]-2-(2,4-dichlorophenyl)ethyl]imidazole] | – | – | minimal impact on cell survival | significantly more effective than pirfenidone | death of mice

Reference: US20240226067A9, “ANTI-FIBROTIC THERAPIES” (THE JOHNS HOPKINS UNIVERSITY, priority 2021, published 2024)
